pIC50: −log10 of the molar value.
What was measured:
VHR = VHR (Homo sapiens, UniProt P51452); test: PTP inhibition assay (pNPP); assay type: biochemical; details: pNPP at Km, pH 7.0, 25° C.
CDC14A = target: T1, CDC14A (Homo sapiens, UniProt Q9UNH5); test: PTP inhibition assay (pNPP); assay type: biochemical
T1 sequence (Q9UNH5 1-594): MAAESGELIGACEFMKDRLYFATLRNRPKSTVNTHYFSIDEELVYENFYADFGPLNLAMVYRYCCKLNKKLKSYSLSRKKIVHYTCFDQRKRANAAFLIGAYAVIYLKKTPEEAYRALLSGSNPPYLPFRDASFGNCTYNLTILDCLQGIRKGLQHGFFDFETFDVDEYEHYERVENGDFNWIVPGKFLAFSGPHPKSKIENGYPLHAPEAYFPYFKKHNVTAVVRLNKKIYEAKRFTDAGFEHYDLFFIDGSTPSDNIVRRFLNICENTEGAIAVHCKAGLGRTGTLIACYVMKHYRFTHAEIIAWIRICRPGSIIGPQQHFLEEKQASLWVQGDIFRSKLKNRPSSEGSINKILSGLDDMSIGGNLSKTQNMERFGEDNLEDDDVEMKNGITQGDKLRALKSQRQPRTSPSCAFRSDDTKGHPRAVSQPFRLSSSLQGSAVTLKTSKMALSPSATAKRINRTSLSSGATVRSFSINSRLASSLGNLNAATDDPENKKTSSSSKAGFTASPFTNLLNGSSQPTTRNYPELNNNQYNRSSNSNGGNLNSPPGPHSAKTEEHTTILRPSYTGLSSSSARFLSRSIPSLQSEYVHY

PTPσ = PTPσ (Homo sapiens, UniProt Q13332); test: PTP inhibition assay (pNPP); assay type: biochemical; details: read-out: IC50 PTPσ
Chain of PTPσ (Q13332 30-1948): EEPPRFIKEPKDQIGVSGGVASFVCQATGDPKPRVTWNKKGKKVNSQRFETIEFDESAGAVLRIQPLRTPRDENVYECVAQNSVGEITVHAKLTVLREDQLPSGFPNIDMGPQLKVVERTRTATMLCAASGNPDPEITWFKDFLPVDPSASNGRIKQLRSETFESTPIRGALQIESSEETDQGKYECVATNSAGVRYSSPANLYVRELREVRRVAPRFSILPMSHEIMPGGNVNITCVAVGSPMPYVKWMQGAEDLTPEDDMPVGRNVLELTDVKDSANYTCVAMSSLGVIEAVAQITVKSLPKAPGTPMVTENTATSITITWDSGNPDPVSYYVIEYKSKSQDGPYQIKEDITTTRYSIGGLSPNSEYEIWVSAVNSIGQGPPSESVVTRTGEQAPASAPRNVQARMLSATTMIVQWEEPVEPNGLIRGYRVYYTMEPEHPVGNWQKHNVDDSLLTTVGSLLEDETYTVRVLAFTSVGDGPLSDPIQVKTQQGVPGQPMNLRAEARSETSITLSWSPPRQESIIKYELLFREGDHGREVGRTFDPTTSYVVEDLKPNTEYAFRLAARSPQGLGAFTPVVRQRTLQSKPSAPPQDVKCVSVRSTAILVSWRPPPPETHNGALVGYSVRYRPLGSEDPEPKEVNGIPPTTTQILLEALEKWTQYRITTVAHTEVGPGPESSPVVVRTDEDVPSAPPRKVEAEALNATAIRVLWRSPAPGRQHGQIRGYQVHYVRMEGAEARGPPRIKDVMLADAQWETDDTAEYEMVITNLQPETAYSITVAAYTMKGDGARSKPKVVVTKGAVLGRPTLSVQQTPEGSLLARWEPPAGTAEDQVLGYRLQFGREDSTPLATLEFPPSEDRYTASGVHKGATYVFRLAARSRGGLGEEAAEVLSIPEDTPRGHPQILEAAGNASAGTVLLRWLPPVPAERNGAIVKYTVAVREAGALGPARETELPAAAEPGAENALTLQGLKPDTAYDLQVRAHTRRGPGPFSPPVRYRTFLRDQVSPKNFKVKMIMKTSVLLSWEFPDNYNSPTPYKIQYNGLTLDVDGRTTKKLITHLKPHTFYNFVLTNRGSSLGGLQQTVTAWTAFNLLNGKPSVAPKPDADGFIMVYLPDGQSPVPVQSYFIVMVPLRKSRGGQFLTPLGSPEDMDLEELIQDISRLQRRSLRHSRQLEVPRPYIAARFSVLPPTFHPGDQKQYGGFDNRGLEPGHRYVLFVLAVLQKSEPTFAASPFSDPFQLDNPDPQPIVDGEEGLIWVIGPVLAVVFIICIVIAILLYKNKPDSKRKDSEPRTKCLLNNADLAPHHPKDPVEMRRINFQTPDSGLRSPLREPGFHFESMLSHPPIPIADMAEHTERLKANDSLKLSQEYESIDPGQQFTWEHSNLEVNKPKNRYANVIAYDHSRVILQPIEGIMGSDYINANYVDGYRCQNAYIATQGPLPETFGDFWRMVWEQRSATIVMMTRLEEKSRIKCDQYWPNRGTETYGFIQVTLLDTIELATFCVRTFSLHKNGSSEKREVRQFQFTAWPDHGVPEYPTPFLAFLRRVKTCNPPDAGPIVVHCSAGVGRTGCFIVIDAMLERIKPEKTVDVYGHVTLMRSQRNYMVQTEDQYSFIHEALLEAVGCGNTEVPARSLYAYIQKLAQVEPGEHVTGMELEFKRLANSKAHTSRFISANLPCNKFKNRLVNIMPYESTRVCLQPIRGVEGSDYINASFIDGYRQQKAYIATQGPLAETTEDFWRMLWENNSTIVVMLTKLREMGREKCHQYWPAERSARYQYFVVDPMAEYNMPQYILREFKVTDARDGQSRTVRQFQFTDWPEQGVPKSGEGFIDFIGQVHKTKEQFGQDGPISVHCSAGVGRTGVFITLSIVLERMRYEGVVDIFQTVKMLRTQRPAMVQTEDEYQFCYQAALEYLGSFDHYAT

mPTPB = target: T2, mPTPB (Mycobacterium tuberculosis, UniProt I6WXK4); test: biochemical; details: IC50 mPTPB
T2 sequence (I6WXK4 1-276): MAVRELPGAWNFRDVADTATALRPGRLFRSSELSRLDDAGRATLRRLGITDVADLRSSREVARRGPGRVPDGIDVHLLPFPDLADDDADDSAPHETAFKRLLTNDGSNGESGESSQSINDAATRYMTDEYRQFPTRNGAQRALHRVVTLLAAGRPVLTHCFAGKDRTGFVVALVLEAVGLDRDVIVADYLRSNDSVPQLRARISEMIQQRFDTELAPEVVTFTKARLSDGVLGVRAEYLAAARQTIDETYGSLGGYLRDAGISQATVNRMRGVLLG

TbPTP1 = TbPTP1 (Trypanosoma brucei brucei, UniProt Q38AT7); test: PTP inhibition assay (pNPP); assay type: biochemical; details: pNPP at Km, pH 7.0, 25° C.; read-out: IC50 TbPTP1
Chain of TbPTP1 (Q38AT7 entry or part of it): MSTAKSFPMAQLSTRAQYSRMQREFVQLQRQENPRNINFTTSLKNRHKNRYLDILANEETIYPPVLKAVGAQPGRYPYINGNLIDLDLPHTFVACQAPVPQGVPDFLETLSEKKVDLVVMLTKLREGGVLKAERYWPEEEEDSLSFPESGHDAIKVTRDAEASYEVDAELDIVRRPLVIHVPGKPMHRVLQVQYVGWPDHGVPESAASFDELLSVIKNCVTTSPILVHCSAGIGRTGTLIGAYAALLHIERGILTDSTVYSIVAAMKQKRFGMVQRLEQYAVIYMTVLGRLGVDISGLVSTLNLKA

PTPε = PTPε (Homo sapiens, UniProt P23469); test: PTP inhibition assay (pNPP); assay type: biochemical
Chain of PTPε (P23469 20-700): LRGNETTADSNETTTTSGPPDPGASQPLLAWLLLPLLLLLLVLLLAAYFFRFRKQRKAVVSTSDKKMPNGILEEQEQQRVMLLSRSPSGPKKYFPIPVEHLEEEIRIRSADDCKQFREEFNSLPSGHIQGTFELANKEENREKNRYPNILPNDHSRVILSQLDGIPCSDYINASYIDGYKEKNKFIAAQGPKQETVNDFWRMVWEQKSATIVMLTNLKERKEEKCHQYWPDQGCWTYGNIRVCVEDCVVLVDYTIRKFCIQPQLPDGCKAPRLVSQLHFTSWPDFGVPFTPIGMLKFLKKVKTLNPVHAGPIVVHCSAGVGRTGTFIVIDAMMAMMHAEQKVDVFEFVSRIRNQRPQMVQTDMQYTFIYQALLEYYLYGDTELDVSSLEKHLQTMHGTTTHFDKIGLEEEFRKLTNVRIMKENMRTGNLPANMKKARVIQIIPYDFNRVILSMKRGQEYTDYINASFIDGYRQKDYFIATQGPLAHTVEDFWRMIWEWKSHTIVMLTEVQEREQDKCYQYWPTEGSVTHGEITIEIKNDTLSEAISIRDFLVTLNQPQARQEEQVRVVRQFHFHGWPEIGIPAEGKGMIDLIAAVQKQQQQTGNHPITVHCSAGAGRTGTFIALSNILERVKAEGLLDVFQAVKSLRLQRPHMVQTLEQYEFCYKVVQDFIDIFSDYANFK

Meg2 = target: T3, Meg2 (Homo sapiens, UniProt P43378); test: PTP inhibition assay (pNPP); assay type: biochemical
T3 sequence (P43378 1-593): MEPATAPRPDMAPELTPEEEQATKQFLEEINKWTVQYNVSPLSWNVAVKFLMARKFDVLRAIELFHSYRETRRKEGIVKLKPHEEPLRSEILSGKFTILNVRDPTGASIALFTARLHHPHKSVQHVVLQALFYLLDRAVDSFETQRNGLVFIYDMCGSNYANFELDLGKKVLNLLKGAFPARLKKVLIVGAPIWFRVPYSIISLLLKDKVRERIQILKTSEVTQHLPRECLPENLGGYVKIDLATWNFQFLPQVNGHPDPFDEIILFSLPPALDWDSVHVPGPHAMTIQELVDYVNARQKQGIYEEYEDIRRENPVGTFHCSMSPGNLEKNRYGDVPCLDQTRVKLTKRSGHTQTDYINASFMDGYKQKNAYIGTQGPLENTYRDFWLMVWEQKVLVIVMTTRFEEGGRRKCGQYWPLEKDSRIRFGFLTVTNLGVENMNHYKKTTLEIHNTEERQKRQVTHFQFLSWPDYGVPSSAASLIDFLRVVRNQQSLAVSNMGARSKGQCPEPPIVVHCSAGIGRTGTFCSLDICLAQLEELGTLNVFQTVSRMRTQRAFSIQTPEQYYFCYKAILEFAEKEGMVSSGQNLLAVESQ

STEP = target: T4, STEP (Homo sapiens, UniProt P54829); test: PTP inhibition assay (pNPP); assay type: biochemical; details: pNPP at Km, pH 7.0, 25° C.; read-out: IC50 STEP
T4 sequence (P54829 1-565): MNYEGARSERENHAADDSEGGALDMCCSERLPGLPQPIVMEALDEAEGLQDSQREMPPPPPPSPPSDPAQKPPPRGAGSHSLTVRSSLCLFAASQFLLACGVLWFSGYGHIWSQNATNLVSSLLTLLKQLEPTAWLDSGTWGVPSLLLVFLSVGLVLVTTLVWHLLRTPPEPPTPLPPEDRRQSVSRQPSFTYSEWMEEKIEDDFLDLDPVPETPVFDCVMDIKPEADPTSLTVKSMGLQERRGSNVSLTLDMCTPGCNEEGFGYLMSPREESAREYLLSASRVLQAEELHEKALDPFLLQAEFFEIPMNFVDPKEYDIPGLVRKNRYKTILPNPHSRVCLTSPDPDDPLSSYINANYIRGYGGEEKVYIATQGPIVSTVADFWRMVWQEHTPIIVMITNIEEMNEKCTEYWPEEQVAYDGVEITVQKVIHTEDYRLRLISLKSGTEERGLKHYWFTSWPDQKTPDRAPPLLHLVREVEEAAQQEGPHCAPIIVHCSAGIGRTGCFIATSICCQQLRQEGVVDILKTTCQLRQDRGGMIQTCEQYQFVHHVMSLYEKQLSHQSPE

HePTP = target: T5, HePTP (Homo sapiens, UniProt P35236); test: PTP inhibition assay (pNPP); assay type: biochemical; details: pNPP at Km, pH 7.0, 25° C.
T5 sequence (P35236 1-360): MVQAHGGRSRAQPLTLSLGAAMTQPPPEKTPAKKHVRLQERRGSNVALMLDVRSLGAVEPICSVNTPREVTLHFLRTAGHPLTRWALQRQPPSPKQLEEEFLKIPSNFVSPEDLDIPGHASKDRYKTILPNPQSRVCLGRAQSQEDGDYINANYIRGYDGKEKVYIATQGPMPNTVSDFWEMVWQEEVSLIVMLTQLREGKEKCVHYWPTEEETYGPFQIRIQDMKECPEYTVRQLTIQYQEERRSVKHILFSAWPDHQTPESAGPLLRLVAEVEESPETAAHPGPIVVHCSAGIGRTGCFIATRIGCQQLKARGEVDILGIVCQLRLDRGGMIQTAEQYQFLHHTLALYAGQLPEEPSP

YopH = YopH (Yersinia enterocolitica, UniProt P15273); test: biochemical
Chain of YopH (P15273 whole entry, looked up): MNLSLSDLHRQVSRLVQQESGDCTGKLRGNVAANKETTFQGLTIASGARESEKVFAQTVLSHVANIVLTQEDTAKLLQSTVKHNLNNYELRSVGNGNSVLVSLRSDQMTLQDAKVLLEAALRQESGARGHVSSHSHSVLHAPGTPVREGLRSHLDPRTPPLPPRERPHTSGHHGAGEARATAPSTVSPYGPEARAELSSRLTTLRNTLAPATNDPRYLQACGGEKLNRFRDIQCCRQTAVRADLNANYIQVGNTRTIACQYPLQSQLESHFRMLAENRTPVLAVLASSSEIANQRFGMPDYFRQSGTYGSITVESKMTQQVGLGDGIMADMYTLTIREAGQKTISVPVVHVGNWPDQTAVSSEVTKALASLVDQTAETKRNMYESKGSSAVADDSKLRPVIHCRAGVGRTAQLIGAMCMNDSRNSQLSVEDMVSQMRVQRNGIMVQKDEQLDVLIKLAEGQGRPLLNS

Chain of VHR (P51452 whole entry): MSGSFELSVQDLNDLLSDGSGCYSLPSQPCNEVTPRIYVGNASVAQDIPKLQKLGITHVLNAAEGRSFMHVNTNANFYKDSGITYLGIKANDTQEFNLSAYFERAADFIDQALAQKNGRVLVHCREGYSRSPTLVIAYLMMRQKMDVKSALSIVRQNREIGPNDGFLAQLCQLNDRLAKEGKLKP

Q: With `O=C(CS(=O)(=O)O)Nc1nc2ccccc2s1` [Compound L335N15] as the molecule, how does the pIC50 (VHR) read?
A: The pIC50 was less than 4.00.

Q: What about the pIC50 (CDC14A) of the same molecule?
A: Its pIC50 is less than 4.00.

Q: And the pIC50 (PTPσ)?
A: Its pIC50 is less than 4.00.

Q: And the pIC50 (mPTPB)?
A: Its pIC50 is 5.02.

Q: And the pIC50 (TbPTP1)?
A: Its pIC50 is less than 4.00.

Q: What about the pIC50 (PTPε) of the same molecule?
A: Its pIC50 is less than 4.00.

Q: What about the pIC50 (Meg2) of the same molecule?
A: The pIC50 was less than 4.00.

Q: What about the pIC50 (STEP) of the same molecule?
A: Its pIC50 is less than 4.00.

Q: What about the pIC50 (HePTP) of the same molecule?
A: The pIC50 was less than 4.00.

Q: What about the pIC50 (YopH) of the same molecule?
A: The pIC50 was less than 4.00.

From US10494332B2, “Protein tyrosine phosphatases or SHP2 inhibitors and uses thereof” (Indiana University Research and Technology Corporation, priority 2015, dated 2019)
